The compounds below were run against human TRPV1 (Homo sapiens (Human), UniProt Q8NER1). Conditions: read-out: IC50 (μM), antagonist effect against human TRPV1; CHO cells expressing human TrpV1; stimulated with 2.5 μM NADA (EC80); mean of at least three independent experiments.
Chain of human TRPV1 (Q8NER1 whole entry): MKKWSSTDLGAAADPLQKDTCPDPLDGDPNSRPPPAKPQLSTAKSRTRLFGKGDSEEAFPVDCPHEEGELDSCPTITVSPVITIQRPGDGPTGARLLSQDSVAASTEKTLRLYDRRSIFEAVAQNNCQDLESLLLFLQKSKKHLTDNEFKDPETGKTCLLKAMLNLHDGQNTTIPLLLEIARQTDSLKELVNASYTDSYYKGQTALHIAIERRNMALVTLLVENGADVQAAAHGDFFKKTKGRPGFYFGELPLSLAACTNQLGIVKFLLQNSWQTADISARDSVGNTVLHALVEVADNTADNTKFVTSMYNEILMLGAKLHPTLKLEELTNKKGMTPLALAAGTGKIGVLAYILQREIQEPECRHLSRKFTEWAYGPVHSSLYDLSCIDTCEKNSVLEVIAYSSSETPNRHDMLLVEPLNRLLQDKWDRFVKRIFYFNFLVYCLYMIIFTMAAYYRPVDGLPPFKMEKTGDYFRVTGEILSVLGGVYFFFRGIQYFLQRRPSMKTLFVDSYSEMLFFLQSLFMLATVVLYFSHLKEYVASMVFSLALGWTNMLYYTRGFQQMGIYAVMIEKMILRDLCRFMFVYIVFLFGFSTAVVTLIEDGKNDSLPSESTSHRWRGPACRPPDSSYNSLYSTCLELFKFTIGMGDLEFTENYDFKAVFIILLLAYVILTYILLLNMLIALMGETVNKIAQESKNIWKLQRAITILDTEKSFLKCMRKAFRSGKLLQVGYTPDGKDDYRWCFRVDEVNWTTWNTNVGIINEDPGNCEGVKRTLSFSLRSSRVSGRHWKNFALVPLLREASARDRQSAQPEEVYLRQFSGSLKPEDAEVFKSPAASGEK
Procedure: Chinese Hamster Ovary (CHO) cells transfected to express human TrpV1 receptor (which are herein referred to as CHO-huTrpV1 cells), were grown in F-12 Ham's Nutrient Mixture media (HyClone SH30026.01) supplemented with 10% Fetal Bovine Serum (Invitrogen #26140-079), 1% Antibiotic/antimycotic (Invitrogen #15240-062) and 500 ug/mL geneticin (ThermoFisher scientific #1031035). Cells were grown in T-75 flasks at 37° C. incubator with 5% CO2. The cells were passaged twice a week at a ratio of 1:10 to 1:20 to maintain steady growth. For experimentation, cells were harvested at approximately 80% confluency and plated onto 384 well black cell culture plates (cat #781091, Greinier Bio-One Inc.) at 15,000 cells per well in 20 μl media and grown overnight.
The loading dye was prepared following instruction of Calcium 6 assay kit (Molecular Probes, #R8190): 10 ml buffer from bottle B was added to 1 vial of bottle A (adapted to room temperature from −20° C.) and mixed well, then 2.5 mM of fresh prepared probenecid, was added and mixed well. 20 μl/well of loading dye was added on top of the cells, and incubated at 37° C. for 1 hour 30 min.
Assay buffer preparation: 1×HBSS, 2 mM HEPES, 0.1% BSA plus 2.5 mM freshly prepared probenecid (Invitrogen, #P36400). 25 μl/well assay buffer in 384 well clear plate (cat #782281, Greiner Bio-one) was dispensed with buffer distributor (Multidrop ComB1 from Thermo Scientific). The compounds were in 384 Echo plate (cat #LPL0200, Labcyte) and the starting concentration of compound was 10 mM, then 1 to 3 serial dilution in 100% DMSO, 8 ul/well). 125 nl compounds was transferred to the 384 well plate containing 25 μl/well buffer with Echo® 555 Liquid Handler (Labcyte), such that the compound concentration was 5 fold of final concentration. The plate was shook slowly at 40 rpm/min for 10 min to mix. 10 μl of 5 fold compound in the buffer was transferred to the cell plate (containing 20 μl cells and 20 μl dye) using Vertical Pipetting Station 384ST (Agilent Technologies). Six fold of final concentration of NADA (N-arachidonyl dopamine, cat #A8848, Sigma) in the assay buffer was prepared and 30 μl/well was distributed in 384 well clear plate.
After compounds were added to the cell plate with loading dye, within 10-15 minutes, cell plate and plate containing NADA was placed into the FLIPR (Fluorescent Imaging Plate Reader) instrument (Tetra System, Molecular device). The TRPV1 receptor was stimulated by application of 10 μl per well of NADA. For testing the effect of compounds for possible antagonism, 2.5 μM NADA was used at the EC80 concentration.
For determination of antagonist IC50 values (concentration of antagonist that inhibits response to NADA by 50%), at least 10 antagonist concentration were measured in triplicate. The response in the presence of the antagonist was calculated as a percentage of the control response to NADA and was plotted against the concentration of the antagonist. The IC50 was estimated by non-linear regression analysis to sigmoidal-logistic curves by HELIOS (PROD 2) system. These values were averaged (means and standard error of the mean) for at least three independent experiments.
Work on `N#Cc1cc(O[C@H]2C[C@H](NCc3c(F)ccc4cnccc34)C2)ccc1C(F)(F)F` [Example 59, 5-((1r,3r)-3-(((6-fluoroisoquinolin-5-yl)methyl)amino)cyclobutoxy)-2-(trifluoromethyl)benzonitrile] yielded an IC50 of 0.0758 µM.
Compound `CCOC(=O)c1cc(O[C@H]2C[C@H](NCc3c(F)ccc4cnccc34)C2)ccc1C(F)(F)F` [Example 60, ethyl 5-((1r,3r)-3-(((6-fluoroisoquinolin-5-yl)methyl)amino)cyclobutoxy)-2-(trifluoromethyl)benzoate] has an IC50 of 0.32 µM.
With `N#Cc1c(O[C@H]2C[C@H](NCc3c(F)ccc4cnccc34)C2)cccc1C(F)(F)F` [Example 61, 2-((1r,3r)-3-(((6-fluoroisoquinolin-5-yl)methyl)amino)cyclobutoxy)-6-(trifluoromethyl)benzonitrile] the IC50 was 0.194 µM.
In the case of `Fc1ccc2cnccc2c1CN[C@H]1C[C@H](Oc2cnc(Cl)c(C(F)(F)F)c2)C1` [Example 62, (1r,3r)-3-((6-chloro-5-(trifluoromethyl)pyridin-3-yl)oxy)-N-((6-fluoroisoquinolin-5-yl)methyl)cyclobutan-1-amine], the IC50 is reported as 0.336 µM.
Work on `Fc1ccc(NC2CC(NCc3c(F)ccc4cnccc34)C2)cc1C(F)(F)F` (stereo not shown) [Example 63, N^1-(4-fluoro-3-(trifluoromethyl)phenyl)-N^3-((6-fluoroisoquinolin-5-yl)methyl)cyclobutane-1,3-diamine] yielded an IC50 of 0.0986 µM.
Work on `Fc1cc(CO[C@H]2C[C@H](NCc3c(F)ccc4cnccc34)C2)ccc1C(F)(F)F` [Example 64, (1r,3r)-3-((3-fluoro-4-(trifluoromethyl)benzyl)oxy)-N-((6-fluoroisoquinolin-5-yl)methyl)cyclobutan-1-amine] yielded an IC50 of 0.163 µM.
Work on `O=C(Cc1cccc2cnccc12)N[C@H]1C[C@H](Oc2ccc(F)c(C(F)(F)F)c2)C1` [Example 65, N-((1r,3r)-3-(4-fluoro-3-(trifluoromethyl)phenoxy)cyclobutyl)-2-(isoquinolin-5-yl)acetamide] yielded an IC50 of 0.00098 µM.
Compound `CS(=O)(=O)NCC(O)c1cc(F)c(CN[C@H]2C[C@H](Oc3ccc(F)c(C(F)(F)F)c3)C2)c2ccncc12` (stereo partly shown) [Example 66, N-(2-(6-fluoro-5-((((1r,3r)-3-(4-fluoro-3-(trifluoromethyl)phenoxy)cyclobutyl)amino)methyl)isoquinolin-8-yl)-2-hydroxyethyl)methanesulfonamide] has an IC50 of 1.11 µM.
`NS(=O)(=O)NCC(O)c1cc(F)c(CN[C@H]2C[C@H](Oc3ccc(F)c(C(F)(F)F)c3)C2)c2ccncc12` (stereo partly shown) [Example 67, N-(2-(6-fluoro-5-((((1r,3r)-3-(4-fluoro-3-(trifluoromethyl)phenoxy)cyclobutyl)amino)methyl)isoquinolin-8-yl)-2-hydroxyethyl) sulfuric diamide] gave an IC50 of 0.00377 µM.
`C[C@]1(NCc2c(F)ccc3cnccc23)C[C@@H](Oc2ccc(F)c(C(F)(F)F)c2)C1` [Example 68 cis, (1s,3s)-3-(4-fluoro-3-(trifluoromethyl)phenoxy)-N-((6-fluoroisoquinolin-5-yl)methyl)-1-methylcyclobutan-1-amine] showed an IC50 of 0.333 µM.
With `C[C@]1(NCc2c(F)ccc3cnccc23)C[C@H](Oc2ccc(F)c(C(F)(F)F)c2)C1` [Example 68 trans, (1r,3r)-3-(4-fluoro-3-(trifluoromethyl)phenoxy)-N-((6-fluoroisoquinolin-5-yl)methyl)-1-methylcyclobutan-1-amine] the IC50 was 0.0129 µM.
For `Nc1cc2c(CC(=O)N[C@H]3C[C@H](Oc4ccc(F)c(C(F)(F)F)c4)C3)c(F)ccc2cn1` [Example 69, 2-(3-amino-6-fluoroisoquinolin-5-yl)-N-((1r,3r)-3-(4-fluoro-3-(trifluoromethyl)phenoxy)cyclobutyl)acetamide], the IC50 was 0.00015 µM.
Compound `CC(=O)NCC(O)c1cc(F)c(CN[C@H]2C[C@H](Oc3ccc(F)c(C(F)(F)F)c3)C2)c2ccncc12` (stereo partly shown) [Example 70, N-(2-(6-fluoro-5-((((1r,3r)-3-(4-fluoro-3-(trifluoromethyl)phenoxy)cyclobutyl)amino)methyl)isoquinolin-8-yl)-2-hydroxyethyl)acetamide] has an IC50 of 0.402 µM.

From US11845730B2, “1,3-substituted cyclobutyl derivatives and uses thereof” (Novartis AG, priority 2021, dated 2023)
